The experiment has as its target T1, NS5B from the BK strain (genotype 1b) (Hepatitis C virus genotype 1b, UniProt P26663).
T1 construct: NS5B from the BK strain (genotype 1b) is expressed in E. coli as a protein in which the 21 C-terminal amino acids are replaced; made in house; host or cells: E. coli
The experiment can be described thus: Hepatitis C polymerase inhibition, NS5B BK strain, 33P-GTP filter assay. It is filed as biochemical. The conditions noted are these: for inhibition at 20 µM: read-out: HCV pol % inh at 20 μM; for IC50: NS5B BK strain, read-out: HCV pol BK IC50. The method in brief:
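Radiolabelled RNA synthesis was measured by filter capture and scintillation counting after EDTA stop. His-tagged, C-terminally truncated (Δ21) genotype 1b BK NS5B from E. coli, pre-exposed to compound for 15 min, copied a self-primed RNA template (~3 nM) with α-[33P]-GTP for 2 h at room temperature.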

This is an account of results in patent US7217730B2, “Method for the use of pyranoindole derivatives to treat infection with Hepatitis C virus” (Wyeth, priority 2002, dated 2007).

Read-outs that look alike come from different tables or passages of the source.

T1 sequence (P26663 2420-2989): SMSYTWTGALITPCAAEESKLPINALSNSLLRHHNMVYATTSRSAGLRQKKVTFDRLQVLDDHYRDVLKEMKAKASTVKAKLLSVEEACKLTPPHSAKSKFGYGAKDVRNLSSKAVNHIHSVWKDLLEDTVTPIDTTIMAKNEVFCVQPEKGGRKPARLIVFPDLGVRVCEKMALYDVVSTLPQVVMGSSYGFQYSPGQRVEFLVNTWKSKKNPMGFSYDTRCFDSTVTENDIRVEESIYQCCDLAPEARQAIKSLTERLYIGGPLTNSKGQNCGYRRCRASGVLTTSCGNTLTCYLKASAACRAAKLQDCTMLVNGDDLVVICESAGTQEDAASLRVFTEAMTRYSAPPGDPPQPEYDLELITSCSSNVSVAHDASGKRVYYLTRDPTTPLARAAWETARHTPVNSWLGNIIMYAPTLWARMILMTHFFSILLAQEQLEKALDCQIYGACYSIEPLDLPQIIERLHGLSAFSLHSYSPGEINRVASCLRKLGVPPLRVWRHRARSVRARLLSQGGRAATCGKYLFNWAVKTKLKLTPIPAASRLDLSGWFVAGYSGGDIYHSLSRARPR

With `CCCCC1(CC(=O)O)OCCc2c1[nH]c1c(C)cc(F)c(Br)c21` (centres unmarked) [Example 203, (5-bromo-1-butyl-6-fluoro-8-methyl-1,3,4,9-tetrahydropyrano[3,4-b]indol-1-yl)acetic acid], where the note is “Table 1A, 20 μM compound”, the inhibition at 20 µM was 94%. For the setting “Table 1A”, the concentration for half-maximal inhibition (IC50) (usually the concentration that inhibits the measured activity by half) was 0.19 µM.

For `COc1cc(C2(CC(=O)O)OCCc3c2[nH]c2c(Cl)ccc(Cl)c32)cc(OC)c1OC` (centres unmarked) [Example 55, [5,8-dichloro-1-(3,4,5-trimethoxyphenyl)-1,3,4,9-tetrahydropyrano[3,4-b]indol-1-yl]acetic acid], where the note is “Table 1A, 20 μM compound”, the inhibition at 20 µM was less than 5%. Moreover, the IC50 (Table 1A) was more than 20 µM.

`CCCC1(CC(=O)O)OCCc2c1[nH]c1c(Br)cccc21` (centres unmarked) [Example 82, (8-bromo-1-propyl-1,3,4,9-tetrahydropyrano[3,4-b]indol-1-yl)acetic acid]: the inhibition at 20 µM (Table 1A, 20 μM compound) came to 73%. The concentration for half-maximal inhibition (IC50) (Table 1A) amounted to 9.2 µM.

Take `Cc1cc(F)c2[nH]c3c(c2c1Br)CCOC3(CC(=O)O)C(C)C` (centres unmarked) [Example 166, (5-bromo-8-fluoro-1-isopropyl-6-methyl-1,3,4,9-tetrahydropyrano[3,4-b]indol-1-yl)acetic acid]: under “Table 1A, 20 μM compound”, the inhibition at 20 µM is 55%. Further, where the note is “Table 1A”, the concentration for half-maximal inhibition (IC50) was determined as 3.7 µM.

With `CC(C)C1(CC(=O)O)OCCc2c1[nH]c1c(F)ccc(F)c21` (centres unmarked) [Example 125, (5,8-difluoro-1-isopropyl-1,3,4,9-tetrahydropyrano[3,4-b]indol-1-yl)acetic acid], the inhibition at 20 µM (Table 1A, 20 μM compound) was 73%. Besides, the IC50 (Table 1A) was more than 20 µM.

Regarding `C/C=C/CCC1(CC(=O)O)OCCc2c1[nH]c1c(Cl)ccc(C(F)(F)F)c21` (centres unmarked) [Example 134, [8-chloro-1-[(3E)-pent-3-enyl]-5-(trifluoromethyl)-1,3,4,9-tetrahydropyrano[3,4-b]indol-1-yl]acetic acid], the inhibition at 20 µM (Table 1A, 20 μM compound) was 28%. In addition, the concentration for half-maximal inhibition (IC50) (Table 1A) was more than 20 µM.

As for `CCCC1(CC(=O)O)OCCc2c1[nH]c1cccc(-c3ccccc3C(F)(F)F)c21` (centres unmarked) [Example 45, (1-propyl-5-[2-(trifluoromethyl)phenyl]-1,3,4,9-tetrahydropyrano[3,4-b]indol-1-yl)acetic acid], the inhibition at 20 µM (Table 1A, 20 μM compound) turned out to be 14%. Also, under “Table 1A”, the IC50 was more than 20 µM.

Consider `CCCC1(CC(=O)O)OCCc2c1[nH]c1c(-c3cccc(Br)c3)cccc21` (centres unmarked) [Example 96, [8-(3-bromophenyl)-1-propyl-1,3,4,9-tetrahydropyrano[3,4-b]indol-1-yl]acetic acid], for which, where the note is “Table 1A, 20 μM compound”, the inhibition at 20 µM turned out to be 37%. For the same compound, where the note is “Table 1A”, the IC50 was more than 20 µM.

For `Cc1ccc(C)c2c3c([nH]c12)C(C)(CC(=O)O)OCC3` (centres unmarked) [Example 137, (1,5,8-trimethyl-1,3,4,9-tetrahydropyrano[3,4-b]indol-1-yl)acetic acid], the inhibition at 20 µM (Table 1A, 20 μM compound) was 5%. For the same compound, the half-maximal inhibitory concentration (IC50) (Table 1A) was more than 20 µM.

On to `CCC1(CC(=O)O)OCCc2c1[nH]c1c(F)cc(F)c(Br)c21` (centres unmarked) [Example 189, (5-bromo-1-ethyl-6,8-difluoro-1,3,4,9-tetrahydropyrano[3,4-b]indol-1-yl)acetic acid], for which the inhibition at 20 µM (Table 1A, 20 μM compound) turned out to be 74%. For the same compound, the concentration for half-maximal inhibition (IC50) (Table 1A) came to 4.2 µM.

Turning to `CCCC1(CC(=O)O)OCCc2c1[nH]c1cccc(-c3ccc(Cl)cc3Cl)c21` (centres unmarked) [Example 35, [5-(2,4-dichlorophenyl)-1-propyl-1,3,4,9-tetrahydropyrano[3,4-b]indol-1-yl]acetic acid], for the setting “Table 1A, 20 μM compound”, the inhibition at 20 µM turned out to be 35%. Further, the IC50 (Table 1A) is more than 20 µM.

As to `CCCC1(CC(=O)O)OCCc2c1[nH]c1c(C)ccc(C(N)=O)c21` (centres unmarked) [Example 226, (5-carbamoyl-8-Methyl-1-propyl-1,3,4,9-tetrahydropyrano[3,4-b]indol-1-yl)acetic acid], the IC50 (Table 1A) is more than 20 µM.

Turning to `CCCCC1(CC(=O)O)OCCc2c1[nH]c1c(Cl)cc(C)c(C#N)c21` (centres unmarked) [Example 185, (1-butyl-8-chloro-5-cyano-6-methyl-1,3,4,9-tetrahydropyrano[3,4-b]indol-1-yl)acetic acid], the inhibition at 20 µM (Table 1A, 20 μM compound) came out at 69%. For the setting “Table 1A”, the half-inhibitory concentration (IC50) turned out to be 4 µM.

With `C/C=C/CCC1(CC(=O)O)OCCc2c1[nH]c1cccc(Cl)c21` (centres unmarked) [Example 16, {5-chloro-1-[(3E)-pent-3-enyl]-1,3,4,9-tetrahydropyrano[3,4-b]indol-1-yl}acetic acid], under “Table 1A, 20 μM compound”, the inhibition at 20 µM was less than 5%. For the same compound, under “Table 1A”, the concentration for half-maximal inhibition (IC50) is more than 20 µM.

For the compound `CCCC1(CC(=O)O)OCCc2c1[nH]c1c(Cl)ccc(C(F)(F)F)c21` (centres unmarked) [Example 131, [8-chloro-1-propyl-5-(trifluoromethyl)-1,3,4,9-tetrahydropyrano[3,4-b]indol-1-yl]acetic acid], the inhibition at 20 µM (Table 1A, 20 μM compound) was determined as 93%. In addition, the IC50 (Table 1A) was 0.32 µM.

For `O=C(O)CC1(c2ccc(C(=O)O)cc2)OCCc2c1[nH]c1ccc(Cl)c(Cl)c21` (centres unmarked) [Example 113, 4-[1-(carboxymethyl)-5,6-dichloro-1,3,4,9-tetrahydropyrano[3,4-b]indol-1-yl]benzoic acid], the inhibition at 20 µM worked out at 35%. The half-maximal inhibitory concentration (IC50) (Table 1A) is 0.26 µM.

Take `CCCC1(CC(=O)O)OCCc2c1[nH]c1c(Cl)cc(Cl)c(Cl)c21` (centres unmarked) [Example 156, (5,6,8-trichloro-1-propyl-1,3,4,9-tetrahydropyrano[3,4-b]indol-1-yl)acetic acid]: the inhibition at 20 µM (Table 1A, 20 μM compound) came to 88%. Besides, the IC50 (Table 1A) came out at 0.08 µM.

As to `N#Cc1cccc2[nH]c3c(c12)CCOC3(CC(=O)O)c1ccc([N+](=O)[O-])cc1` (centres unmarked) [Example 64, [5-cyano-1-(4-nitrophenyl)-1,3,4,9-tetrahydropyrano[3,4-b]indol-1-yl]acetic acid], for the setting “Table 1A, 20 μM compound”, the inhibition at 20 µM amounted to 18%. Besides, the IC50 (Table 1A) is more than 20 µM.

`CCCC1(CC(=O)O)OCCc2c1[nH]c1c(Cl)cc(C)c(C#N)c21` (centres unmarked) [Example 183, (8-chloro-5-cyano-6-methyl-1-propyl-1,3,4,9-tetrahydropyrano[3,4-b]indol-1-yl)acetic acid]: the inhibition at 20 µM (Table 1A, 20 μM compound) was found to be 88%. The concentration for half-maximal inhibition (IC50) (Table 1A) was 0.59 µM.

As to `CCCC1(CC(=O)O)OCCc2c1[nH]c1c(F)ccc(F)c21` (centres unmarked) [Example 124, (5,8-difluoro-1-propyl-1,3,4,9-tetrahydro-pyrano[3,4-b]indol-1-yl)acetic acid], the inhibition at 20 µM (Table 1A, 20 μM compound) was determined as 61%. For the same compound, the IC50 (Table 1A) turned out to be 6.7 µM.

As for `CCC1(CC(=O)O)OCCc2c1[nH]c1c(C)ccc(F)c21` (centres unmarked) [Example 142, (1-ethyl-5-fluoro-1,3,4,9-tetrahydro-8-methyl-pyrano[3,4-b]indol-1-yl)acetic acid], under “Table 1A, 20 μM compound”, the inhibition at 20 µM was 39%. Also, the half-inhibitory concentration (IC50) (Table 1A) was 19.8 µM.

In the case of `O=C(O)CC1(c2ccccc2F)OCCc2c1[nH]c1cccc(Br)c21` (centres unmarked) [Example 30, [5-bromo-1-(2-fluorophenyl)-1,3,4,9-tetrahydropyrano[3,4-b]indol-1-yl]acetic acid], under “Table 1A, 20 μM compound”, the inhibition at 20 µM was less than 5%. Also, the IC50 (Table 1A) is more than 20 µM.

With “(5-bromo-8-fluoro-1,6-dimethyl-1,3,4,9-tetrahydropyrano[3,4-b]indol-1-yl)acetic acid [Example 163]”, the “HCV pol % inh at 20 μM” value (Table 1A, 20 μM compound) is reported as 28%. Besides, for the setting “Table 1A”, the IC50 is more than 10 µM.

Regarding `CCCCC1(CC(=O)O)OCCc2c1[nH]c1c(F)cc(F)c(Br)c21` (centres unmarked) [Example 191, (5-bromo-1-butyl-6,8-difluoro-1,3,4,9-tetrahydropyrano[3,4-b]indol-1-yl)acetic acid], the inhibition at 20 µM (Table 1A, 20 μM compound) came out at 93%. For the same compound, the IC50 (Table 1A) turned out to be 0.4 µM.

Regarding `CCCC1(CC(=O)O)OCCc2c1[nH]c1c(Cl)cccc21` (centres unmarked) [Example 74, (8-chloro-1-propyl-1,3,4,9-tetrahydropyrano[3,4-b]indol-1-yl)acetic acid], the inhibition at 20 µM (Table 1A, 20 μM compound) worked out at 69%. Moreover, the 50% inhibitory concentration (IC50) (Table 1A) came to 17.9 µM.

As for `CCCC1(CC(=O)O)OCC(C)(C)c2c1[nH]c1c(Cl)ccc(Cl)c21` (centres unmarked) [Example 230, (5,8-dichloro-4,4-dimethyl-1-propyl-1,3,4,9-tetrahydropyrano[3,4-b]indol-1-yl)acetic acid], the IC50 (Table 1A) came out at 3.1 µM.

Regarding `COc1cc(C2(CC(=O)O)OCCc3c2[nH]c2cccc(Br)c32)cc(OC)c1OC` (centres unmarked) [Example 27, [5-bromo-1-(3,4,5-trimethoxyphenyl)-1,3,4,9-tetrahydropyrano[3,4-b]indol-1-yl]acetic acid], the inhibition at 20 µM (Table 1A, 20 μM compound) stood at 3%. In addition, the IC50 (Table 1A) is more than 20 µM.

As to `CC1(CC(=O)O)OCCc2c1[nH]c1c(Cl)cc(Cl)cc21` (centres unmarked) [Example 99, (6,8-dichloro-1-methyl-1,3,4,9-tetrahydropyrano[3,4-b]indol-1-yl)acetic acid], the inhibition at 20 µM (Table 1A, 20 μM compound) turned out to be 32%. Under “Table 1A”, the 50% inhibitory concentration (IC50) was more than 20 µM.

Regarding `CCC1(CC(=O)O)OCCc2c1[nH]c1c(C)cc(F)c(C#N)c21` (centres unmarked) [Example 206, (5-cyano-1-ethyl-6-fluoro-8-methyl-1,3,4,9-tetrahydropyrano[3,4-b]indol-1-yl)acetic acid], the inhibition at 20 µM (Table 1A, 20 μM compound) was found to be 84%. For the same compound, the IC50 (Table 1A) was 1.1 µM.

Consider `CCCC1(CC(=O)O)OCCc2c1[nH]c1cccc(-c3ccccc3C)c21` (centres unmarked) [Example 42, [5-(2-methylphenyl)-1-propyl-1,3,4,9-tetrahydropyrano[3,4-b]indol-1-yl]acetic acid], for which, where the note is “Table 1A, 20 μM compound”, the inhibition at 20 µM is 31%. Under “Table 1A”, the IC50 was more than 20 µM.

As to `Cc1cc(Cl)c2[nH]c3c(c2c1C#N)CCOC3(C)CC(=O)O` (centres unmarked) [Example 181, (8-chloro-5-cyano-1,6-dimethyl-1,3,4,9-tetrahydropyrano[3,4-b]indol-1-yl)acetic acid], the inhibition at 20 µM (Table 1A, 20 μM compound) worked out at 14%. Besides, where the note is “Table 1A”, the concentration for half-maximal inhibition (IC50) is more than 5 µM.

Take `CCCC1(CC(=O)O)OCCc2c1[nH]c1cccc(-c3cccc(OC)c3)c21` (centres unmarked) [Example 47, [5-(3-methoxyphenyl)-1-propyl-1,3,4,9-tetrahydropyrano[3,4-b]indol-1-yl]acetic acid]: where the note is “Table 1A, 20 μM compound”, the inhibition at 20 µM turned out to be 15%. The concentration for half-maximal inhibition (IC50) (Table 1A) was more than 20 µM.
